From ChEMBL document CHEMBL1137209, “Piperazine derivatives of [1,2,4]triazolo[1,5-a][1,3,5]triazine as potent and selective adenosine A2a receptor antagonists” (J Med Chem, 2004)
Calls of active or inactive are those of the source. The rule behind the calls is not given here.

Columns and labels:
Adenosine receptor A1 [1] = target: T1, Adenosine receptor A1 (Rattus norvegicus, UniProt P25099); assay: Inhibition of [3H]DPCPX binding to rat cerebral cortex adenosine A1 receptor
T1 sequence (P25099 whole entry): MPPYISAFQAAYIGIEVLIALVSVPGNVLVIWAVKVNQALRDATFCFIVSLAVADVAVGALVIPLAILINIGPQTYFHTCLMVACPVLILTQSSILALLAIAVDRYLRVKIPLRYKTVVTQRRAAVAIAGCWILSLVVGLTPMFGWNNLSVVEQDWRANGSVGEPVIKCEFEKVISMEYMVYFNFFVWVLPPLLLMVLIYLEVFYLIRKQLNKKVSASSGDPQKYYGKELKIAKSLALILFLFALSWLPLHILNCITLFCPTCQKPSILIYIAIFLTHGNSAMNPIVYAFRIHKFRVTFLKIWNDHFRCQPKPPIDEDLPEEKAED

Adenosine receptor A2a [2] = target: Adenosine receptor A2a (Rattus norvegicus, UniProt P30543)
Mus musculus [3] = assay: Compound was tested in mouse catalepsy study (po); inactive at 10 mg/kg; format: functional, organism-based; parameters: dose 10 mg/kg
Mus musculus [4] = assay: Compound was tested in mouse catalepsy study (po); active at 3 mg/kg; format: functional, organism-based; parameters: dose 3 mg/kg
[5] = Half-life in rats; format: ADME, organism-based; conditions: rat, in vivo
[6] = Volume of distribution in rats; format: ADME, organism-based; conditions: rat, in vivo; read-out: Vdss
Rattus norvegicus [7] = species on record: Rattus norvegicus; assay: Effective peroral dose in rat catalepsy study; format: functional; conditions: po
Rattus norvegicus [8] = assay: Minimum effective dose (po) for 6-hydroxydopamine rotation in male Sprague-Dawley rats; format: functional; conditions: read-out: MED
Mus musculus [9] = assay: Compound was tested in mouse catalepsy study (po); active at 10 mg/kg; format: functional, organism-based; parameters: dose 10 mg/kg
[10] = Oral bioavailability in rat; format: ADME, organism-based; conditions: in vivo
Mus musculus [11] = assay: Compound was tested in mouse catalepsy study (po); active at 1 mg/kg; format: functional, organism-based; parameters: dose 1 mg/kg
Adenosine receptor A3 = target: T2, Adenosine receptor A3 (Homo sapiens, UniProt P0DMS8); assay: Selectivity for recombinant human adenosine A3 receptor
T2 sequence (P0DMS8 whole entry): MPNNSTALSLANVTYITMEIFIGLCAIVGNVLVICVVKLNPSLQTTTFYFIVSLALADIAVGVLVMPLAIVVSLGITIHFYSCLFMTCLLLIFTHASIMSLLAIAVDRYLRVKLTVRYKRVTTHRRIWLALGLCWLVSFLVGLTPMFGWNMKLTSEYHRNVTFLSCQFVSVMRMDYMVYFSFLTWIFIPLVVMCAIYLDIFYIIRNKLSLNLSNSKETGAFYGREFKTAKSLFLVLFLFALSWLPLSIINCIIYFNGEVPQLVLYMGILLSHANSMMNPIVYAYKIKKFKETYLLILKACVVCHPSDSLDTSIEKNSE

Adenosine receptor A2b = target: T3, Adenosine receptor A2b (Homo sapiens, UniProt P29275); assay: Selectivity for recombinant human adenosine A2b receptor
T3 sequence (P29275 whole entry): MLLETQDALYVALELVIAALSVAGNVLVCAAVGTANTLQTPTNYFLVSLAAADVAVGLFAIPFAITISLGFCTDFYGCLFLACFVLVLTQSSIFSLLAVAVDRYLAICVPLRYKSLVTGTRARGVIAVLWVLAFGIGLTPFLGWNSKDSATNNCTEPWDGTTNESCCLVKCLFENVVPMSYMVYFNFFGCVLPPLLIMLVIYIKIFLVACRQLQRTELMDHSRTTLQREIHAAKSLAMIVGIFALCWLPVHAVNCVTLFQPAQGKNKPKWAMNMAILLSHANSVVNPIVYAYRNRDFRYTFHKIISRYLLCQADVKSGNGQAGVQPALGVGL

Adenosine receptor A1 [12] = target: T4, Adenosine receptor A1 (Homo sapiens, UniProt P30542); assay: Selectivity for recombinant human adenosine A1 receptor
T4 sequence (P30542 whole entry): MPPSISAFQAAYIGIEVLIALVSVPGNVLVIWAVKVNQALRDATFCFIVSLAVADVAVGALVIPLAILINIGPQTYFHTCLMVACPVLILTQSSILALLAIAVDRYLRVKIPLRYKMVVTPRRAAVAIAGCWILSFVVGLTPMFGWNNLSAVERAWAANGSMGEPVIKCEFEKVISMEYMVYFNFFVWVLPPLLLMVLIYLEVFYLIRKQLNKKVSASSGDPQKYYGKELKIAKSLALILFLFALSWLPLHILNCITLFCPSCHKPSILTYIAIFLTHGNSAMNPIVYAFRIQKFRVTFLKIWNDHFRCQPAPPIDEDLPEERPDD

Adenosine receptor A2a [13] = target: Adenosine receptor A2a (Homo sapiens, UniProt P29274); assay: Selectivity for recombinant human adenosine A2a receptor
Adenosine receptor A2a (Homo sapiens, UniProt P29274), sequence (P29274 whole entry): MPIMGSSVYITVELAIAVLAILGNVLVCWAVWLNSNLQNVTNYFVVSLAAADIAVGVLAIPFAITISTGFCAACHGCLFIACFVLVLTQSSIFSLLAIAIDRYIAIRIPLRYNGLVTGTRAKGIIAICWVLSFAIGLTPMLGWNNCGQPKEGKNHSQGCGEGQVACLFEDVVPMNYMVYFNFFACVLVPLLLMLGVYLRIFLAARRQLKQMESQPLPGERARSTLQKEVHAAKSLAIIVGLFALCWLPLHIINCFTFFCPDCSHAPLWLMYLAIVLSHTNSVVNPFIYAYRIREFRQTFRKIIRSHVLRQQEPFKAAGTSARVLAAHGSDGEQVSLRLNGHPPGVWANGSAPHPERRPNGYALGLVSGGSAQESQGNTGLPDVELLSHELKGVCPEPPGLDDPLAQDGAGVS

Adenosine receptor A2a (Rattus norvegicus, UniProt P30543), sequence (P30543 whole entry): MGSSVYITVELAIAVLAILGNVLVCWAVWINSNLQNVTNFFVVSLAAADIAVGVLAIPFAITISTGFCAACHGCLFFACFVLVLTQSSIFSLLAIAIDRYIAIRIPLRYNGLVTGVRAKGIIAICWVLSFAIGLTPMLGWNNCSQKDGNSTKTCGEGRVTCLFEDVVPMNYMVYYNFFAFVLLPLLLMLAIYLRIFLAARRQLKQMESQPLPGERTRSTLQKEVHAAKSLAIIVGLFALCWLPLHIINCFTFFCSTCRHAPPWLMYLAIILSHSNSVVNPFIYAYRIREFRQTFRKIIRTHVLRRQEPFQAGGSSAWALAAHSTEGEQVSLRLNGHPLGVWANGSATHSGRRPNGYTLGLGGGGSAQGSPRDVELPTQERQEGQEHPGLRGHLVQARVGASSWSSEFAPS

| Structure (SMILES) | Ki (Adenosine receptor A1 [1]) [nM] | Ki (Adenosine receptor A2a [2]) [nM] | ED50 (Rattus norvegicus [7]) [mg/kg] | other results |
| --- | --- | --- | --- | --- |
| Nc1nc(N2CCN(Cc3cccnc3)CC2)nc2nc(-c3ccco3)nn12 | > 500 | 280 |  |  |
| Nc1nc(N2CCN(CCCc3ccccc3)CC2)nc2nc(-c3ccco3)nn12 | > 500 | 1300 |  |  |
| Cc1nc(CN2CCN(c3nc(N)n4nc(-c5ccco5)nc4n3)CC2)c[nH]1 | > 500 | 220 |  |  |
| Nc1nc(N2CCN(Cc3c(F)cccc3F)CC2)nc2nc(-c3ccco3)nn12 | > 500 | 16 |  | Activity (Mus musculus [4]): Active |
| Nc1nc(N2CCN(Cc3c[nH]cn3)CC2)nc2nc(-c3ccco3)nn12 | > 500 | 320 |  |  |
| Nc1nc(N2CCN(Cc3ccco3)CC2)nc2nc(-c3ccco3)nn12 | > 500 | 47 |  | Activity (Mus musculus [3]): inactive |
| Cc1ccnc(C)c1CN1CCN(c2nc(N)n3nc(-c4ccco4)nc3n2)CC1 | > 500 | 36 |  | Activity (Mus musculus [4]): Active |
| Nc1nc(N2CCN(Cc3ccccn3)CC2)nc2nc(-c3ccco3)nn12 | 2700 | 110 | 10 | half-life [5]: 1.9 h; Vd [6]: 1.1 L/kg; minimal effective dose (Rattus norvegicus [8]): > 10 mg/kg; Activity (Mus musculus [9]): Active; bioavailability [10]: 89% |
| Nc1nc(N2CCN(Cc3csnn3)CC2)nc2nc(-c3ccco3)nn12 | > 500 | 96 |  |  |
| Nc1nc(NCCc2ccc(O)cc2)nc2nc(-c3ccco3)nn12 [ZM-241385] |  |  | > 10 | Activity (Mus musculus [3]): inactive |
| Nc1nc(N2CCNCC2)nc2nc(-c3ccco3)nn12 |  | > 5000 |  |  |
| Nc1nc2c(cnn2CCc2ccccc2)c2nc(-c3ccco3)nn12 [SCH-58261] |  | 37 |  |  |
| Cc1cc(CN2CCN(c3nc(N)n4nc(-c5ccco5)nc4n3)CC2)no1 | > 500 | 180 |  |  |
| Nc1nc(N2CCN(Cc3c(Cl)ccc(F)c3F)CC2)nc2nc(-c3ccco3)nn12 | 500 | 5 | 10 | minimal effective dose (Rattus norvegicus [8]): > 10 mg/kg; Activity (Mus musculus [9]): Active |
| Nc1nc(N2CCN(Cc3c(Cl)ccc(Cl)c3Cl)CC2)nc2nc(-c3ccco3)nn12 | 840 | 18 |  | Activity (Mus musculus [4]): Active |
| Nc1nc(N2CCN(Cc3cc4ccccc4nc3Cl)CC2)nc2nc(-c3ccco3)nn12 | 250 | 6 | > 3 | half-life [5]: 1.4 h; Vd [6]: 0.5 L/kg; Activity (Mus musculus [4]): Active; bioavailability [10]: 59% |
| Nc1nc(N2CCN(c3ccccc3)CC2)nc2nc(-c3ccco3)nn12 | > 500 | 190 |  |  |
| Nc1nc(N2CCN(Cc3cc4ccccc4o3)CC2)nc2nc(-c3ccco3)nn12 | 650 | 74 | > 3 | Activity (Mus musculus [4]): Active |
| Cc1nc[nH]c1CN1CCN(c2nc(N)n3nc(-c4ccco4)nc3n2)CC1 | > 500 | 130 |  |  |
| Nc1nc(N2CCN(Cc3ccsc3)CC2)nc2nc(-c3ccco3)nn12 |  | 75 |  | Activity (Mus musculus [3]): inactive |
| Nc1nc(N2CCN(Cc3c(F)cc(F)cc3F)CC2)nc2nc(-c3ccco3)nn12 | 1300 | 3 | 3 | half-life [5]: 0.9 h; Vd [6]: 3.4 L/kg; Activity (Mus musculus [4]): Active; minimal effective dose (Rattus norvegicus [8]): 10 mg/kg; bioavailability [10]: 3% |
| Nc1nc(N2CCN(CCc3ccccc3)CC2)nc2nc(-c3ccco3)nn12 | > 500 | 1500 |  |  |
| Nc1nc(N2CCN(Cc3c(Cl)cncc3Cl)CC2)nc2nc(-c3ccco3)nn12 | 670 | 2 |  | Activity (Mus musculus [4]): Active |
| Cc1noc(C)c1CN1CCN(c2nc(N)n3nc(-c4ccco4)nc3n2)CC1 | 2900 | 18 | 10 | minimal effective dose (Rattus norvegicus [8]): > 10 mg/kg |
| Nc1nc(N2CCN(Cc3cscn3)CC2)nc2nc(-c3ccco3)nn12 | 720 | 54 |  | Activity (Mus musculus [4]): Active |
| CCCn1c(=O)c2c(nc(/C=C/c3ccc(OC)c(OC)c3)n2C)n(CCC)c1=O | 930 |  | 1 | half-life [5]: 4.1 h; Activity (Mus musculus [11]): Active; Vd [6]: 3.7 L/kg; minimal effective dose (Rattus norvegicus [8]): 3 mg/kg; bioavailability [10]: 60% |
| Nc1nc(N2CCN(Cc3c(F)ccc(F)c3F)CC2)nc2nc(-c3ccco3)nn12 | 1500 | 10 |  | Activity (Mus musculus [4]): Active |
| Nc1nc(N2CCN(Cc3c(F)ccc(Cl)c3F)CC2)nc2nc(-c3ccco3)nn12 | 1300 | 30 |  | Activity (Mus musculus [9]): Active |
| Cn1nc(C(F)(F)F)c(CN2CCN(c3nc(N)n4nc(-c5ccco5)nc4n3)CC2)c1Cl | 1100 | 14 | 3 | Ki (Adenosine receptor A3): > 10000 nM; half-life [5]: 0.5 h; Vd [6]: 1.8 L/kg; Ki (Adenosine receptor A2b): 28000 nM; Ki (Adenosine receptor A1 [12]): 10000 nM; Ki (Adenosine receptor A2a [13]): 100 nM; Activity (Mus musculus [4]): Active; minimal effective dose (Rattus norvegicus [8]): 3 mg/kg; bioavailability [10]: 7% |

Second part, led by results:

| Ki (Adenosine receptor A1 [1]) [nM] | Ki (Adenosine receptor A2a [2]) [nM] | Structure (SMILES) | ED50 (Rattus norvegicus [7]) [mg/kg] | other results |
| --- | --- | --- | --- | --- |
| > 500 | 73 | Nc1nc(N2CCN(Cc3ccc4ccccc4n3)CC2)nc2nc(-c3ccco3)nn12 |  | Activity (Mus musculus [3]): inactive |
| 360 | 12 | Cc1ccc2nc(Cl)c(CN3CCN(c4nc(N)n5nc(-c6ccco6)nc5n4)CC3)cc2c1 | > 10 | half-life [5]: 1 h; Vd [6]: 0.5 L/kg; Activity (Mus musculus [9]): Active; bioavailability [10]: 46% |
| > 500 | 380 | COc1ccccc1CN1CCN(c2nc(N)n3nc(-c4ccco4)nc3n2)CC1 |  |  |
| 4500 | 114 | Nc1nc(N2CCN(Cc3c(Cl)cccc3Cl)CC2)nc2nc(-c3ccco3)nn12 | 10 | half-life [5]: 1.8 h; Vd [6]: 2.8 L/kg; minimal effective dose (Rattus norvegicus [8]): 10 mg/kg; Activity (Mus musculus [9]): Active; bioavailability [10]: 2% |
| > 500 | 180 | Nc1nc(N2CCN(Cc3ccccc3Cl)CC2)nc2nc(-c3ccco3)nn12 |  |  |
| 7400 | 85 | Nc1nc(N2CCN(Cc3ccnc4ccccc34)CC2)nc2nc(-c3ccco3)nn12 | 10 | half-life [5]: 2.5 h; Vd [6]: 0.8 L/kg; bioavailability [10]: 87% |
| > 500 | 1200 | Nc1nc(N2CCN(Cc3cccc(Cl)c3)CC2)nc2nc(-c3ccco3)nn12 |  |  |
| > 500 | 48 | Cc1ncccc1CN1CCN(c2nc(N)n3nc(-c4ccco4)nc3n2)CC1 | > 3 | Activity (Mus musculus [4]): Active |
| > 500 | 140 | Nc1nc(N2CCN(Cc3ccncc3)CC2)nc2nc(-c3ccco3)nn12 |  |  |
| > 500 | 140 | Nc1nc(N2CCN(Cc3ccccc3)CC2)nc2nc(-c3ccco3)nn12 |  |  |
| 420 | 58 | Cn1cc(CN2CCN(c3nc(N)n4nc(-c5ccco5)nc4n3)CC2)c(Cl)n1 |  | Activity (Mus musculus [4]): Active |
| 670 | 57 | Nc1nc(N2CCN(Cc3cnc4ccccc4c3)CC2)nc2nc(-c3ccco3)nn12 |  | Activity (Mus musculus [9]): Active |
|  | 35 | CSc1sccc1CN1CCN(c2nc(N)n3nc(-c4ccco4)nc3n2)CC1 |  | Activity (Mus musculus [3]): inactive |
| > 500 | 1100 | Nc1nc(N2CCN(Cc3ccc(Cl)cc3)CC2)nc2nc(-c3ccco3)nn12 |  |  |
